One compound from patent US20160229893A1, “Novel Peptide Compound for Inhibiting Restenosis and Promoting Re-Endothelialization and Method for Preparing the Same” (Chonnam National University Hospital, priority 2014, published 2016) can be followed below.

The subject of the assay is vascular smooth muscle cell (SMC). The experiment in a line: Effect on proliferation of vascular smooth muscle cell (SMC), XTT assay. Format: cell-based. The following applies: 1 uM; XTT absorbance at 450 nm at 1, 4 and 7 days; versus untreated control (FIG. 1). The protocol: As cells used in a cell culture, the vascular smooth muscle cell (SMC) which is a smooth muscle cell, and the human umbilical vein endothelial cell (HUVEC) which is the cell for promoting vascular re-endothelialization were purchased from Korea Cell Line Bank, respectively. The cell culture was performed by culturing the vascular smooth muscle cell (SMC) and the human umbilical vein endothelial cell (HUVEC) in Dulbecoco's modified eagle medium (DMEM) with 10% fetal bovine serum (FBS) under conditions of 37° C. and 5% CO2. […]
5×10^4 of SMC cells cultured according to Example 2 were cultured in the 24-well cell culture plate and then treated with 1 uM of the peptide compound prepared by Example 2 (hereinafter, referred to as ‘EVR-P’). […] After the reaction, 200 ul of the culture medium was transferred from each well to a 96 well cell culture dish, and degree of color change was measured from absorbance at a 450 nm wavelength by a spectroscopy.
5×10^4 of SMC cells cultured according to Example 2 were cultured in the 24-well cell culture plate and then treated with 1 uM of the known Everolimus (EVR)(LC Laboratories). […] After the reaction, 200 ul of the culture medium was transferred from each well to the 96 well cell culture dish, and degree of color change was measured from absorbance at a 450 nm wavelength by a spectroscopy.
A general note: Tetrazolium assays rely on reduction of a dye to a coloured formazan, in cell work by metabolically active cells.

Regarding `CO[C@H]1C[C@@H]2CC[C@@H](C)[C@@](O)(O2)C(=O)C(=O)N2CCCC[C@H]2C(=O)O[C@H]([C@H](C)C[C@@H]2CC[C@@H](OCCO)[C@H](OC)C2)CC(=O)[C@H](C)/C=C(\C)[C@@H](O)[C@@H](OC)C(=O)[C@H](C)C[C@H](C)/C=C/C=C/C=C/1C` [EVR, Everolimus], the SMC cell proliferation entry is reported as “cell proliferation was inhibited”.
